Measurements as given in US11667652B2, “MCL1 inhibitors” (Gilead Sciences, Inc., priority 2019, dated 2023).
Read-outs that look alike come from different tables or passages of the source.

Columns and labels:
MCL1/Bim = MCL1/Bim (Homo sapiens (Human), UniProt Q07820); experiment: MCL1/Bim Binding AlphaLISA Assay; conditions: recombinant human 6xHis-MCL1 (171-327), biotinylated Bim peptide (51-76)
Method in brief: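 AlphaLISA with 0.0625 nM human 6×His-MCL1 (171-327) and 0.0625 nM biotinylated Bim (51-76) peptide in 20 mM Hepes pH 7.5, 150 mM NaCl, 0.002% Brij 35, 1 mM DTT, 0.01% BSA. Compound preincubated with MCL1 1 h, Bim added 2 h, then acceptor and donor beads 1 h each; % inhibition versus DMSO and no-protein/peptide controls.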

SKBR3 cells = experiment: SKBR3 Cell Viability Assay; type: cell-based; conditions: CellTiter Glo, read-out: MCL1 CV SKBR3 EC50
Method in brief: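 Viability was measured by CellTiter-Glo luminescence after 72 h at 37° C, 5% CO2. Each well held 6,000 SKBR3 cells in McCoy's 5A/10% FBS dispensed onto serially diluted compound. Percent inhibition is relative to DMSO and 10 μM puromycin controls.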

[1] = Homo sapiens, SK-BR-3, 72 hours

MCL1/Bim, sequence (Q07820 171-327): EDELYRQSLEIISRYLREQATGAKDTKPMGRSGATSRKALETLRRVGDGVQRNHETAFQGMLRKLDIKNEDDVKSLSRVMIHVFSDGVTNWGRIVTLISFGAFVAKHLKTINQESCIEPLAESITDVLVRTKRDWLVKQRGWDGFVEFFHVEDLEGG

IC50 (MCL1/Bim)	EC50 (SKBR3 cells; [1])	EC50 (SKBR3 cells; 72 hours)	SMILES
0.085 nM	164 nM	–	COc1nn(C)cc1C(=O)N[S@@]1(=O)=NC(=O)c2ccc3c(c2)N(C[C@@H]2CC[C@H]2[C@@H](OC)/C=C/[C@H](OCc2cn(C)cn2)[C@H](C)C1)C[C@@]1(CCCc2cc(Cl)ccc21)CO3 [Example 85]
0.088 nM	64.6 nM	–	COc1nn(C)cc1C(=O)N[S@@]1(=O)=NC(=O)c2ccc3c(c2)N(C[C@@H]2CC[C@H]2[C@@H](OC)/C=C/[C@H](OCCN2CC4(COC4)C2)[C@H](C)C1)C[C@@]1(CCCc2cc(Cl)ccc21)CO3 [Example 86]
0.19 nM	1090 nM	–	COc1nn(C)cc1C(=O)N[S@@]1(=O)=NC(=O)c2ccc3c(c2)N(C[C@@H]2CC[C@H]2[C@@H](OC)/C=C/[C@H](OCCN2CC4(CN(C)C4)C2)[C@H](C)C1)C[C@@]1(CCCc2cc(Cl)ccc21)CO3 [Example 87]
0.055 nM	–	170 nM	COc1nn(C)cc1C(=O)N[S@@]1(=O)=NC(=O)c2ccc3c(c2)N(C[C@@H]2CC[C@H]2[C@@H](OC)/C=C/[C@H](OCCn2ccnc2)[C@H](C)C1)C[C@@]1(CCCc2cc(Cl)ccc21)CO3 [Example 88]
0.177 nM	–	88.4 nM	COc1nn(C)cc1C(=O)N[S@@]1(=O)=NC(=O)c2ccc3c(c2)N(C[C@@H]2CC[C@H]2[C@@H](OC)/C=C/[C@H](OC(C)=O)[C@H](C)[C@H]1C)C[C@@]1(CCCc2cc(Cl)ccc21)CO3 [Example 91]
2.59 nM	–	796 nM	COc1nn(C)cc1C(=O)N[S@@]1(=O)=NC(=O)c2ccc3c(c2)N(C[C@@H]2CC[C@H]2[C@H](OC)/C=C/[C@H](OC(C)=O)[C@H](C)[C@H]1C)C[C@@]1(CCCc2cc(Cl)ccc21)CO3 [Example 92]
0.457 nM	556 nM	–	COc1nn(C)cc1C(=O)N[S@@]1(=O)=NC(=O)c2ccc3c(c2)N(C[C@@H]2CC[C@H]2[C@@H](OC)/C=C/[C@@H](OC)[C@H](C)C1)C[C@@]1(CCCc2cc(Cl)ccc21)CO3 [Example 93]
4.39 nM	3630 nM	–	COc1nn(C)cc1C(=O)N[S@@]1(=O)=NC(=O)c2ccc3c(c2)N(C[C@@H]2CC[C@H]2[C@@](C)(OC)/C=C/C[C@H](C)C1)C[C@@]1(CCCc2cc(Cl)ccc21)CO3 [Example 95]
0.075 nM	–	1410 nM	COc1nn(C)cc1C(=O)N[S@@]1(=O)=NC(=O)c2ccc3c(c2)N(C[C@@H]2CC[C@H]2[C@](O)(CC(=O)N(C)C)/C=C/C[C@H](C)C1)C[C@@]1(CCCc2cc(Cl)ccc21)CO3 [Example 96]
0.047 nM	–	15.8 nM	COc1nn(C)cc1C(=O)N[S@@]1(=O)=NC(=O)c2ccc3c(c2)N(C[C@@H]2CC[C@H]2[C@@](O)(CC(=O)N(C)C)/C=C/C[C@H](C)C1)C[C@@]1(CCCc2cc(Cl)ccc21)CO3 [Example 97]
0.031 nM	–	73.3 nM	COc1nn(C)cc1C(=O)N[S@@]1(=O)=NC(=O)c2ccc3c(c2)N(C[C@@H]2CC[C@H]2[C@@](O)(CC(=O)N2CCOCC2)/C=C/C[C@H](C)C1)C[C@@]1(CCCc2cc(Cl)ccc21)CO3 [Example 98]
0.034 nM	–	14.2 nM	COc1nn(C)cc1C(=O)N[S@@]1(=O)=NC(=O)c2ccc3c(c2)N(C[C@@H]2CC[C@H]2[C@@](O)(CC(=O)N2CCOCC2)/C=C/C[C@H](C)C1)C[C@@]1(CCCc2cc(Cl)ccc21)CO3 [Example 99]

The next lines start with the compound.

SMILES	IC50 (MCL1/Bim)	EC50 (SKBR3 cells; [1])	EC50 (SKBR3 cells; 72 hours)
COc1nn(C)cc1C(=O)N[S@@]1(=O)=NC(=O)c2ccc3c(c2)N(C[C@@H]2CC[C@H]2[C@@H](OCCN2CC(C(F)F)C2)/C=C/C[C@H](C)C1)C[C@@]1(CCCc2cc(Cl)ccc21)CO3 [Example 62]	0.069 nM	17.5 nM	–
COc1nn(C)cc1C(=O)N[S@@]1(=O)=NC(=O)c2ccc3c(c2)N(C[C@@H]2CC[C@H]2[C@@H](OCCN2CCC(OC)CC2)/C=C/C[C@H](C)C1)C[C@@]1(CCCc2cc(Cl)ccc21)CO3 [Example 63]	0.034 nM	25.2 nM	–
CO[C@H]1/C=C/[C@H](O)[C@H](C)C[S@@](=O)(Nc2ncnc3nn(C)cc23)=NC(=O)c2ccc3c(c2)N(C[C@@H]2CC[C@H]21)C[C@@]1(CCCc2cc(Cl)ccc21)CO3 [Example 66]	0.039 nM	8.6 nM	–
COc1nn(C)cc1C(=O)N[S@@]1(=O)=NC(=O)c2ccc3c(c2)N(C[C@@H]2CC[C@H]2[C@@H](OC)/C=C/[C@@H](OC)[C@H](C)[C@H]1C)C[C@@]1(CCCc2cc(Cl)ccc21)CO3 [Example 68]	0.2 nM	–	93.8 nM
COc1nn(C)cc1C(=O)N[S@@]1(=O)=NC(=O)c2ccc3c(c2)N(C[C@@H]2CC[C@H]2[C@@H](OC)/C=C/[C@@H](OC)[C@H](C)[C@H]1C)C[C@@]1(CCCc2cc(Cl)ccc21)CO3 [Example 69]	2.07 nM	–	1000 nM
CO[C@H]1/C=C/[C@H](OC)[C@H](C)C[S@@](=O)(NC(=O)c2cn(C)nc2OCCN2CCOCC2)=NC(=O)c2ccc3c(c2)N(C[C@@H]2CC[C@H]21)C[C@@]1(CCCc2cc(Cl)ccc21)CO3 [Example 70]	0.198 nM	–	92.9 nM
CO[C@H]1/C=C/[C@H](OC)CC[S@@](=O)(Nc2ncnc3nn(C)cc23)=NC(=O)c2ccc3c(c2)N(C[C@@H]2CC[C@H]21)C[C@@]1(CCCc2cc(Cl)ccc21)CO3 [Example 71]	0.894 nM	–	192 nM
COc1nn(C)cc1C(=O)N[S@@]1(=O)=NC(=O)c2ccc3c(c2)N(C[C@@H]2CC[C@H]2[C@@H](OC)C#C[C@H](OC)[C@H](C)C1)C[C@@]1(CCCc2cc(Cl)ccc21)CO3 [Example 72]	0.309 nM	–	294 nM
COCC(=O)O[C@H]1/C=C/[C@H](OC)[C@@H]2CC[C@H]2CN2C[C@@]3(CCCc4cc(Cl)ccc43)COc3ccc(cc32)C(=O)N=[S@](=O)(NC(=O)c2cn(C)nc2OC)C[C@H]1C [Example 73]	0.047 nM	13.8 nM	–
COc1nn(C)cc1C(=O)N[S@@]1(=O)=NC(=O)c2ccc3c(c2)N(C[C@@H]2CC[C@H]2[C@@H](OC)/C=C/[C@H](OCc2ncccn2)[C@H](C)C1)C[C@@]1(CCCc2cc(Cl)ccc21)CO3 [Example 74]	0.06 nM	187 nM	–
COCC#CCO[C@H]1/C=C/[C@H](OC)[C@@H]2CC[C@H]2CN2C[C@@]3(CCCc4cc(Cl)ccc43)COc3ccc(cc32)C(=O)N=[S@](=O)(NC(=O)c2cn(C)nc2OC)C[C@H]1C [Example 75]	0.217 nM	171 nM	–
COCCOCCOCCO[C@H]1/C=C/[C@H](OC)[C@@H]2CC[C@H]2CN2C[C@@]3(CCCc4cc(Cl)ccc43)COc3ccc(cc32)C(=O)N=[S@](=O)(NC(=O)c2cn(C)nc2OC)C[C@H]1C [Example 76]	0.048 nM	24.1 nM	–
COc1nn(C)cc1C(=O)N[S@@]1(=O)=NC(=O)c2ccc3c(c2)N(C[C@@H]2CC[C@H]2[C@@H](OC)/C=C/[C@H](Oc2ccccn2)[C@H](C)C1)C[C@@]1(CCCc2cc(Cl)ccc21)CO3 [Example 77]	0.905 nM	477 nM	–
COc1nn(C)cc1C(=O)N[S@@]1(=O)=NC(=O)c2ccc3c(c2)N(C[C@@H]2CC[C@H]2[C@@H](OC)/C=C/[C@H](Oc2ccncc2)[C@H](C)C1)C[C@@]1(CCCc2cc(Cl)ccc21)CO3 [Example 78]	0.679 nM	1060 nM	–
COc1nn(C)cc1C(=O)N[S@@]1(=O)=NC(=O)c2ccc3c(c2)N(C[C@@H]2CC[C@H]2[C@@H](OC)/C=C/[C@H](OCCN2CCN(C4COC4)CC2)[C@H](C)C1)C[C@@]1(CCCc2cc(Cl)ccc21)CO3 [Example 79]	0.062 nM	–	42.9 nM
COc1nn(C)cc1C(=O)N[S@@]1(=O)=NC(=O)c2ccc3c(c2)N(C[C@@H]2CC[C@H]2[C@@H](OC)/C=C/[C@H](OCCN2CC(N(C)C)C2)[C@H](C)C1)C[C@@]1(CCCc2cc(Cl)ccc21)CO3 [Example 80]	0.253 nM	27.5 nM	–
COc1nn(C)cc1C(=O)N[S@@]1(=O)=NC(=O)c2ccc3c(c2)N(C[C@@H]2CC[C@H]2[C@@H](OC)/C=C/[C@H](OCCN2CC(OC)C2)[C@H](C)C1)C[C@@]1(CCCc2cc(Cl)ccc21)CO3 [Example 81]	0.011 nM	6.3 nM	–
COc1nn(C)cc1C(=O)N[S@@]1(=O)=NC(=O)c2ccc3c(c2)N(C[C@@H]2CC[C@H]2[C@@H](OC)/C=C/[C@H](OCCN2CCN(C)CC2)[C@H](C)C1)C[C@@]1(CCCc2cc(Cl)ccc21)CO3 [Example 82]	0.041 nM	53.6 nM	–
COc1nn(C)cc1C(=O)N[S@@]1(=O)=NC(=O)c2ccc3c(c2)N(C[C@@H]2CC[C@H]2[C@@H](OC)/C=C/[C@H](OCc2nccn2C)[C@H](C)C1)C[C@@]1(CCCc2cc(Cl)ccc21)CO3 [Example 83]	0.1 nM	99.1 nM	–
COc1nn(C)cc1C(=O)N[S@@]1(=O)=NC(=O)c2ccc3c(c2)N(C[C@@H]2CC[C@H]2[C@@H](OC)/C=C/[C@H](OCc2ccncc2)[C@H](C)C1)C[C@@]1(CCCc2cc(Cl)ccc21)CO3 [Example 84]	0.099 nM	90 nM	–
